Experimental findings from PubChem BioAssay (NCI) are described below.

Structures are written as SMILES.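 Exposure lasted 48 hours, with cells grown in 96-well plates and compounds tested at five concentrations. TGI is the concentration that stops growth completely.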 Where only a bound is given, the exact number is not on record here.

Experiment in all cases: NCI anticancer screen, dose series, 48 h
For assay [1], the system named is 786-0 renal.
For assay [2], the system named is ACHN renal.
For assay [3], the system named is HOP-62 NSCLC.
For assay [4], the system named is HOP-92 NSCLC.
Assay [5] deals with MDA-MB-231 breast.
In assay [6] the test system is NCI/ADR-RES ovarian.
Assay [7] relates to OVCAR-5 ovarian.
Assay [8] relates to RXF 393 renal.
In assay [9] the test system is UO-31 renal.
Assay [10] has as its system K-562 leukemia.
For assay [11], the system named is MDA-N.

Turning to `COc1cc2c(/C=C3/C(=O)Nc4ccccc43)c(Cl)n(Cc3ccc(Cl)cc3)c2cc1C`, the TGI turned out to be 1.4 µM in assay [1]; 1.27 µM in [2]; 0.821 µM in assay [3]; 39.5 µM in [4]; 0.754 µM in [5]; 0.612 µM in assay [6]. Also, the TGI in assay [7] was 8.84 µM; in [8] it was 4.85 µM; in assay [9], 17.6 µM.

Take `CC1=NN(C(=O)CC(=O)Nc2cccc(C)c2)C(=O)C1N=Nc1ccc(S(=O)(=O)CCOS(=O)(=O)O)cc1` (stereo unspecified): the TGI in [1] is 12.9 µM; in assay [2] it was 17.1 µM; in assay [3], 25.9 µM; in assay [4], 17.9 µM; in [10] it was over 100 µM; in [5], 14.8 µM. Also, the TGI in [11] was 0.902 µM; in assay [7] it was 66.2 µM; in assay [8], 22 µM; in assay [9], 10.5 µM.

Take `C[C@H]1S[C@@H](c2ccc(Cl)cc2Cl)N(NC(=O)c2ccncc2)C1=O`: the TGI in [3], in assay [4], in assay [10], in assay [5], in [6] and in assay [7] was over 100 µM in each case. Also, the TGI in [8] and in [9] was over 100 µM each time.

`CCC1(c2ccc(N3C(=O)c4cccc5cc([N+](=O)[O-])cc(c45)C3=O)cc2)CCC(=O)NC1=O` (stereo unspecified): the TGI in assay [1] is 21.6 µM; in assay [2] it was 43.5 µM; in [3] it was 26.9 µM; in assay [4] it was 8.8 µM; in [10], over 100 µM; in [5], 21.4 µM. The TGI in assay [6] is 79.8 µM; in [7], over 100 µM; in [8], 20.4 µM; in assay [9], 27.7 µM.

For `CC(C)CCCC(C)[C@H]1CCC(C2C[C@@H](O)[C@@H]3CC(O)[C@@H](O)C[C@]3(CO)C2=O)[C@]1(C)CCO` (stereo partly specified), the TGI is 52.8 µM in [3]; 61.2 µM in assay [10]; over 100 µM in assay [6]; 55.8 µM in assay [7]; 53.3 µM in [8]; 49.8 µM in [9].

Turning to `NC(=O)CCC(N=c1c2ccccc2n(O)c2ccccc12)C(=O)O` (stereo unspecified), the TGI in assay [1], in assay [2], in assay [3], in assay [10], in assay [7] and in [9] was over 100 µM throughout.

For `CC(=O)n1[nH]c(=O)n(-c2ccc(Cl)cc2)c1=O`, the TGI in assay [1], in [2], in assay [3], in [10], in [5] and in assay [11] was over 100 µM in each case. For the same molecule, the TGI in [6], in [7], in assay [8] and in [9] was over 100 µM each time.

With `C/C(=C1\N=C(c2ccccc2)OC1=O)c1ccccc1`, the TGI in [2], in assay [3], in assay [4], in assay [10], in assay [7] and in assay [9] was over 100 µM each time.

As to `CC1=C(CO)C(=O)OC(C(C)C2CCC3C4CC5OC56C(O)C(N5CC5)=CC(=O)C6(C)C4CCC23C)C1` (stereo unspecified), the TGI in assay [1] came out at 17.8 µM; in assay [2] it was 19.5 µM; in assay [3], 40.7 µM; in assay [4] it was 19.3 µM; in [10], 14.2 µM; in assay [7] it was 31.2 µM. Besides, the values for the TGI in assay [8] and in assay [9] were 26.9 µM and 25.7 µM, respectively.

For `CCC1(O)CC(CCN(Cc2ccccc2)C(=O)OCc2ccccc2)C(OCc2ccccc2)C1O` (stereo unspecified), the TGI in assay [1] turned out to be 39.3 µM; in [2], 32.2 µM; in assay [3], 29.6 µM; in [10], 19.5 µM; in assay [5], 87.3 µM; in assay [11], 98.8 µM. Moreover, the TGI in assay [6] is 25.7 µM; in assay [7], 41.2 µM; in assay [8], 41.9 µM; in assay [9], 33.7 µM.

On to `CC(Nc1ccc(Cl)cc1)c1ccncc1` (stereo unspecified), for which the TGI in assay [1], in assay [2], in assay [3], in assay [10], in [11] and in assay [6] was over 100 µM throughout. Further, the TGI in assay [7], in assay [8] and in assay [9] was over 100 µM in each case.

For `CCOC(=O)c1c(N)sc2c1C(C(=O)OCC)CCCC2` (stereo unspecified), the TGI in assay [1], in [2], in assay [3], in [4], in assay [10] and in assay [5] was over 100 µM each time. In addition, the TGI in assay [11], in [7], in assay [8] and in assay [9] was over 100 µM throughout.

In the case of `CCOc1ccc2nc(NC(=O)C(=O)C(C(=O)c3ccccc3F)C3OC(=O)c4ccccc43)sc2c1` (stereo unspecified), the TGI was over 100 µM in [2]; over 100 µM in assay [3]; over 100 µM in [10]; 38.3 µM in [8]; 33.6 µM in [9].

For the molecule `N[C@@H](CCC(=O)NC(Cc1ccccc1)C(=O)NCP(=O)(O)O)C(=O)O` (stereo partly specified), the TGI in [1], in [2], in [3], in assay [10], in assay [5] and in assay [11] was over 100 µM in each case. For the same molecule, the TGI in [6], in [7] and in assay [9] was over 100 µM each time.

Consider `C=C1CCC[C@@H](C)C(O)[C@@H]2OC(=O)C(=C)[C@@H]2C[C@@H](OC(C)=O)[C@@]2(C)CC[C@@H]1O2` (stereo partly specified), for which the TGI in assay [1] turned out to be 20.1 µM; in assay [2] it was 13.4 µM; in assay [3] it was 18.7 µM; in [4] it was 15 µM; in [10] it was 12.1 µM; in [5] it was 16.3 µM. Moreover, the TGI in assay [6] was determined as 19.3 µM; in [7], 16.1 µM; in assay [8], 12.9 µM; in assay [9] it was 15.3 µM.
